Series [1] can be described thus: Inhibition of Plasmodium falciparum DHFR expressed in Escherichia coli BL21 using DHF as substrate by spectrophotometric analysis.
Series [2] can be described thus: Inhibition of Plasmodium falciparum DHFR A16V/S108T mutant expressed in Escherichia coli BL21 using DHF as substrate by spectrophotometric analysis.
The nature of series [3]: Inhibition of Plasmodium falciparum DHFR […] mutant expressed in Escherichia coli BL21 using DHF as substrate by spectrophotometric analysis.
Series [4] is described as follows: Inhibition of Plasmodium falciparum DHFR N51I/C59R/S108N mutant expressed in Escherichia coli BL21 using DHF as substrate by spectrophotometric analysis.
A short description of series [5]: Inhibition of Plasmodium falciparum DHFR C59R/S108N/I164L mutant expressed in Escherichia coli BL21 using DHF as substrate by spectrophotometric analysis.
Series [6] in a line: Inhibition of Plasmodium falciparum DHFR N51I/C59R/S108N/I164L mutant expressed in Escherichia coli BL21 using DHF as substrate by spectrophotometric analysis.
Series [7] concerns Plasmodium falciparum. Briefly: Antimalarial activity against Plasmodium falciparum TM4/8.2 infected in human erythrocytes assessed as reduction in [3H]-hypoxanthine incorporation pretreated for 20 hrs followed by [3H]-hypoxanthine addition measured after 20 hrs by radioactivity method. It counts as functional, organism-based.
Series [8] has as its system Plasmodium falciparum. Briefly: Antimalarial activity against Plasmodium falciparum K1CB1 harboring DHFR […] mutant infected in human erythrocytes assessed as reduction in [3H]-hypoxanthine incorporation pretreated for 20 hrs followed by [3H]-hypoxanthine addition measured after 20 hrs by radioactivity method. It counts as functional, organism-based. The following applies: K1CB1, Erythrocyte.

Series [9] has as its system Plasmodium falciparum. The series can be described thus: Antimalarial activity against Plasmodium falciparum W2 harboring DHFR N51I/C59R/S108N mutant infected in human erythrocytes assessed as reduction in [3H]-hypoxanthine incorporation pretreated for 20 hrs followed by [3H]-hypoxanthine addition measured after 20 hrs by radioactivity method. It counts as functional, organism-based. To be noted: W2, Erythrocyte.

Series [10] relates to Plasmodium falciparum. The series can be described thus: Antimalarial activity against Plasmodium falciparum CsI-2 harboring DHFR C59R/S108N/I164L mutant infected in human erythrocytes assessed as reduction in [3H]-hypoxanthine incorporation pretreated for 20 hrs followed by [3H]-hypoxanthine addition measured after 20 hrs by radioactivity method. It counts as functional, organism-based. The following applies: CsI-2, Erythrocyte.

The subject of series [11] is Plasmodium falciparum. Briefly: Antimalarial activity against Plasmodium falciparum V1/S harboring DHFR N51I/C59R/S108N/I164L mutant infected in human erythrocytes assessed as reduction in [3H]-hypoxanthine incorporation pretreated for 20 hrs followed by [3H]-hypoxanthine addition measured after 20 hrs by radioactivity method. The following applies: Erythrocyte. It counts as functional, organism-based.

In series [12] the test system is DHFR (human against Plasmodium falciparum DHFR). Briefly: Selectivity index, ratio of Ki for human DHFR expressed in Escherichia coli BL21 to Ki for Plasmodium falciparum DHFR expressed in Escherichia coli BL21. It counts as toxicity. The following applies: read-out: Ratio Ki.
For series [13], the system named is DHFR (human against Plasmodium falciparum DHFR double mutant). Briefly: Selectivity index, ratio of Ki for human DHFR expressed in Escherichia coli BL21 to Ki for Plasmodium falciparum DHFR double mutant expressed in Escherichia coli BL21. It counts as toxicity. To be noted: read-out: Ratio Ki.
In series [14] the test system is DHFR (human against Plasmodium falciparum DHFR N51I/C59R/S108N/I164L mutant). The series can be described thus: Selectivity index, ratio of Ki for human DHFR expressed in Escherichia coli BL21 to Ki for Plasmodium falciparum DHFR N51I/C59R/S108N/I164L mutant expressed in Escherichia coli BL21. It counts as toxicity. To be noted: read-out: Ratio Ki.
A further series concerns Vero. Briefly: Cytotoxicity against African green monkey Vero cells assessed as reduction in cell viability incubated for 72 hrs by SRB assay. To be noted: Chlorocebus sabaeus. It counts as cell-based.
A short description of series [15]: Therapeutic index, ratio of IC50 for African green monkey Vero cells to IC50 for Plasmodium falciparum TM4/8.2. It counts as toxicity. The following applies: against Plasmodium falciparum TM4/8.2, read-out: Ratio IC50.
The nature of series [16]: Therapeutic index, ratio of IC50 for African green monkey Vero cells to IC50 for Plasmodium falciparum K1CB1 harboring DHFR […] mutant. To be noted: read-out: Ratio IC50. It counts as toxicity.
Series [17] in a line: Therapeutic index, ratio of IC50 for African green monkey Vero cells to IC50 for Plasmodium falciparum V1/S harboring DHFR N51I/C59R/S108N/I164L mutant. To be noted: read-out: Ratio IC50. It counts as toxicity.
The test system of series [18] is Plasmodium falciparum. Briefly: Antimalarial activity against Plasmodium falciparum T9/94 RC17 harboring DHFR A16V/S108T mutant infected in human erythrocytes assessed as reduction in [3H]-hypoxanthine incorporation pretreated for 20 hrs followed by [3H]-hypoxanthine addition measured after 20 hrs by radioactivity method. It counts as functional, organism-based. To be noted: T9/94 RC17, Erythrocyte.

Where only a bound is given, the exact number is not on record here.

For `CC1(C)NC(N)=NC(=N)N1OCCc1ccccc1`, the Ki in series [1] was found to be 1.1 nM; in series [2], 7.1 nM; in [3] it was 2 nM; in series [4] it was 2.9 nM; in series [5], 12 nM; in [6], 17 nM. For the same compound, the IC50 came out at 30 nM in the series on Plasmodium falciparum [7]; 39 nM with Plasmodium falciparum [8]; 240 nM in the series on Plasmodium falciparum [9]; 300 nM with Plasmodium falciparum [10]; 720 nM in the series with Plasmodium falciparum [11]; 12000 nM with Vero. The selectivity ratio in [12] turned out to be 39; in series [13], 21; in series [14], 3; in series [15], 400; in [16], 308; in series [17], 17.
`CC1(C)N=C(N)N=C(N)N1OCCCSc1cccc(Cl)c1`: the inhibition constant (Ki) in series [1] was 0.7 nM; in series [2] it was 3.4 nM; in [3], 0.8 nM; in series [5], 0.9 nM; in series [6], 1 nM. Also, the half-maximal inhibitory concentration (IC50) came out at 1.3 nM in the series on Plasmodium falciparum [7]; 2.4 nM in the series with Plasmodium falciparum [18]; 5.5 nM in the series with Plasmodium falciparum [8]; 8.1 nM with Plasmodium falciparum [9]; 42 nM with Plasmodium falciparum [10]; 77 nM with Plasmodium falciparum [11]. The IC50 in the series with Vero is 3900 nM. Moreover, the selectivity ratio in [12] was 34; in [13], 30; in series [14], 24; in [15], 3000; in series [16], 709; in [17], 51.
Regarding `CC1(C)N=C(N)N=C(N)N1OCCCOc1ccc(Cl)cc1`, the Ki in series [1] was 0.6 nM; in [2], 1.2 nM; in [3] it was 0.9 nM; in series [5], 0.9 nM; in [6], 1 nM. Also, the IC50 with Plasmodium falciparum [7] came to 0.28 nM; in the series with Plasmodium falciparum [18], 0.24 nM; in the series with Plasmodium falciparum [8], 1.9 nM; in the series on Plasmodium falciparum [9], 2.1 nM; in the series with Plasmodium falciparum [10], 3.9 nM; in the series with Plasmodium falciparum [11], 23 nM. In addition, the IC50 in the series on Vero is 170 nM. For the same compound, the selectivity ratio in series [12] stood at 49; in series [13] it was 32; in series [14], 29; in series [15] it was 607; in [16], 89; in series [17] it was 7.
Regarding `CC1(C)N=C(N)N=C(N)N1OCCCOc1ccc(F)cc1Cl`, the Ki in series [1] turned out to be 0.4 nM; in series [2], 1.8 nM; in series [3], 0.9 nM; in [5] it was 0.9 nM; in series [6], 1.2 nM. The IC50 with Plasmodium falciparum [7] was 0.034 nM; with Plasmodium falciparum [18], 0.28 nM; in the series on Plasmodium falciparum [8], 0.26 nM; in the series on Plasmodium falciparum [9] it was 0.24 nM; in the series on Plasmodium falciparum [10], 3.1 nM; in the series with Plasmodium falciparum [11], 3 nM. Also, the IC50 in the series with Vero was determined as 21400 nM. Besides, the selectivity ratio in series [12] is 94; in [13], 42; in series [14] it was 31; in [15], 629000; in series [16] it was 82300; in series [17], 7130.
With `CC1(C)NC(N)=NC(=N)N1OCCCCOc1ccccc1`, the Ki in series [1] is 0.8 nM; in series [2], 3.2 nM; in series [3], 1.3 nM; in series [4], 1.6 nM; in series [5] it was 1.7 nM; in series [6], 2 nM. Also, the IC50 was determined as 2.9 nM with Plasmodium falciparum [7]; 33 nM with Plasmodium falciparum [8]; 46 nM in the series with Plasmodium falciparum [9]; 220 nM in the series on Plasmodium falciparum [10]; 220 nM in the series with Plasmodium falciparum [11]; 9800 nM with Vero. The selectivity ratio was 57 in series [12]; 35 in [13]; 23 in series [14]; 3380 in series [15]; 297 in [16]; 45 in [17].
As for `CC1N=C(N)N=C(N)N1OCCCOc1ccc(F)cc1Cl` (stereo not given), the Ki in series [1] is 0.4 nM; in [2] it was 1.8 nM; in [3] it was 0.7 nM; in series [4], 0.8 nM; in series [5], 1.6 nM; in series [6], 1.3 nM. In addition, the IC50 with Plasmodium falciparum [7] is 23 nM; in the series with Plasmodium falciparum [8], 5.2 nM; in the series on Plasmodium falciparum [9], 33 nM; in the series on Plasmodium falciparum [10] it was 47 nM; with Plasmodium falciparum [11], 290 nM; in the series on Vero, more than 50000 nM. The selectivity ratio was 229 in [12]; 131 in series [13]; 70 in series [14]; more than 2170 in series [15]; more than 9620 in [16]; more than 172 in series [17].
In the case of `CC1N=C(N)N=C(N)N1OCCCOc1ccc(Cl)cc1` (stereo not given), the Ki came to 0.4 nM in series [1]; 1.9 nM in series [2]; 0.7 nM in [3]; 0.9 nM in series [4]; 1.4 nM in series [5]; 1.8 nM in [6]. Moreover, the IC50 in the series with Plasmodium falciparum [7] is 30 nM; in the series on Plasmodium falciparum [8], 29 nM; with Plasmodium falciparum [9], 120 nM; in the series on Plasmodium falciparum [10], 380 nM; in the series with Plasmodium falciparum [11] it was 820 nM; in the series with Vero, more than 50000 nM. In addition, the selectivity ratio in series [12] was 290; in series [13], 166; in series [14] it was 64; in series [15] it was more than 1670; in series [16], more than 1720; in [17], more than 61.
Take `CN(CCCON1C(N)=NC(N)=NC1(C)C)c1ccc(Cl)cc1`: the Ki amounted to 1.5 nM in series [1]; 3.4 nM in series [2]; 1.4 nM in series [3]; 2 nM in [5]; 3.4 nM in [6]. Also, the IC50 is 1.7 nM with Plasmodium falciparum [7]; 3.2 nM with Plasmodium falciparum [18]; 49 nM in the series on Plasmodium falciparum [8]; 24 nM in the series with Plasmodium falciparum [9]; 170 nM in the series on Plasmodium falciparum [10]; 420 nM in the series on Plasmodium falciparum [11]. The IC50 in the series on Vero came to 45000 nM. The selectivity ratio amounted to 22 in series [12]; 24 in [13]; 10 in [14]; 26500 in series [15]; 918 in [16]; 107 in [17].
Turning to `CC1(C)N=C(N)N=C(N)N1OCCCc1ccccc1`, the Ki in series [1] came to 1.1 nM; in series [2], 3.1 nM; in [3], 1.3 nM; in series [4], 1.2 nM; in series [5], 2.8 nM; in [6], 5 nM. In addition, the IC50 in the series on Plasmodium falciparum [7] was determined as 9.2 nM; in the series on Plasmodium falciparum [8] it was 22 nM; in the series on Plasmodium falciparum [9], 39 nM; in the series on Plasmodium falciparum [10], 250 nM; with Plasmodium falciparum [11], 90 nM; in the series on Vero, 7100 nM. Moreover, the selectivity ratio is 36 in series [12]; 30 in [13]; 8 in series [14]; 772 in series [15]; 323 in series [16]; 79 in [17].
As to `CCN(CC)CCCON1C(N)=NC(N)=NC1(C)C`, the Ki in series [1] was 1 nM; in series [2], 9.7 nM; in series [3], 1.7 nM; in [4] it was 2.1 nM; in series [5], 5.5 nM; in series [6], 7.9 nM. In addition, the IC50 in the series on Plasmodium falciparum [7] was 24 nM; in the series on Plasmodium falciparum [8], 32 nM; with Plasmodium falciparum [9], 70 nM; in the series with Plasmodium falciparum [10] it was 140 nM; in the series on Plasmodium falciparum [11], 800 nM; with Vero, more than 50000 nM. Further, the selectivity ratio in [12] was 230; in series [13], 135; in series [14], 29; in series [15], more than 2080; in [16] it was more than 1560; in [17], more than 63.

As usually defined, the Ki is a dissociation constant, usually derived from enzyme kinetics or from competition with a known ligand. The term IC50 denotes the midpoint of a concentration-inhibition curve.

Values taken from ChEMBL document CHEMBL4765292, “Flexible diaminodihydrotriazine inhibitors of Plasmodium falciparum dihydrofolate reductase: Binding strengths, modes of binding and their antimalarial activities” (Eur J Med Chem, 2020).
